Legend:
[1] = test system: RKO (RKOp27) human colon adenocarcinoma cells; assay: Alamar Blue cell viability assay, anti-proliferative/cytotoxic activity on proliferating (uninduced) RKOp27 cells; type: cell-based; settings: 72 hours incubation, absence of the inducer Ponasterone A, read-out: IC50 RKO p27 uninduced (proliferating)
Protocol: The anti-proliferative/cytotoxic activity of the compounds described herein, can be tested on subclones of RKO (RKOp27) human colon adenocarcinoma cells (Schmidt et al., Oncogene 19, 2423-2429; 2000) using the Alamar Blue cell viability assay (described in O'Brien et al. Eur J Biochem 267, 5421-5426, 2000). The compounds are dissolved as 20 mM solutions in dimethylsulfoxide (DMSO) and subsequently diluted in semi-logarithmic steps. DMSO dilutions are further diluted 1:100 into Dulbecco's modified Eagle's medium (DMEM) containing 10% fetal calf serum to a final concentration twice as much as the final concentration in the test. RKO subclones are seeded into 96 well flat bottom plates at a density of 5000 cells per well in a volume of 50 μl per well. 24 hours after seeding the 50 μl each of the compound dilutions in DMEM medium are added into each well of the 96 Well plate. Each compound dilution is tested as quadruplicates. Wells containing untreated control cells are filled with 50 μl DMEM medium containing 1% DMSO. The cells are then incubated with the substances for 72 hours at 37° C. in a humified atmosphere containing 5% carbon dioxide. To determine the viability of the cells, 10 μl of an Alamar Blue solution (Biosource) are added and the fluorescence is measured at an extinction of 544 nm and an emission of 590 nm. For the calculation of the cell viability the emission value from untreated cells is set as 100% viability and the emission rates of treated cells are set in relation to the values of untreated cells. Viabilities are expressed as % values.
The corresponding IC50 values of the compounds for anti-proliferative/cytotoxic activity are determined from the concentration-effect curves.
Representative IC50 values for anti-proliferation/cytotoxicity determined in the mentioned assay follow from the following table A, in which the numbers of the compounds correspond to the numbers of the examples.

[2] = test system: RKO colon adenocarcinoma cells (RKOp27) arrested by the expression of ectopic p27Kip1; assay: Alamar Blue cell viability assay on RKOp27 cells arrested by p27Kip1 expression induced by Ponasterone A; type: cell-based; settings: Homo sapiens, 72 hours incubation, 10 μM Ponasterone A, read-out: IC50 RKO p27 induced (arrested)
Protocol: To determine the cell cycle specific mode of action, subclones of RKO colon adenocarcinoma cells (RKOp27 or RKOp21 as described by Schmidt et al. in Oncogene 19, 2423-2429; 2000) are seeded into 96 well flat bottom plates at a density of 15000 cells per well in a volume of 50 μl per well in DMEM growth medium with 10% FCS containing 10 μM Ponasterone A. 24 hours after seeding the 50 μl each of the compound dilutions in DMEM medium are added into each well of the 96 Well plate. Each compound dilution is tested as quadruplicates. Wells containing untreated control cells are filled with 50 μl DMEM medium containing 1% DMSO. The cells are then incubated with the substances for 72 hours at 37° C. in a humidified atmosphere containing 5% carbon dioxide. To determine the viability of the cells, 10 μl of an Alamar Blue solution (Biosource) are added and the fluorescence was measured at an extinction of 544 nm and an emission of 590 nm. For the calculation of the cell viability the emission value from untreated cells is set as 100% viability and the emission rates of treated cells are set in relation to the values of untreated cells. Viabilities are expressed as % values. Viability is compared of proliferating cells grown in the absence of the inducer Ponasterone A, versus viability of cells arrested by the expression of ectopic p27Kip1 induced by Ponasterone A.

Compound | IC50 [1] [nM] | IC50 [2] [nM]
CCOc1ccccc1CCC(=O)Nc1sc2c(c1C#N)CCN(C(=O)Cn1ccnc1)C2 [Example 85, N-[3-Cyano-6-(2-imidazol-1-yl-ethanoyl)-4,5,6,7-tetrahydro-thieno[2,3-c]pyridin-2-yl]-3-(2-ethoxy-phenyl)-propionamide] | ≤ 300 | ≥ 40000
COc1ccccc1C(C)CC(=O)Nc1sc2c(c1C#N)CCN(C(=O)CCc1nccn1C)C2 (racemic) [Example 113, (RS)—N-{3-Cyano-6-[3-(1-methyl-1H-imidazol-2-yl)-propanoyl]-4,5,6,7-tetrahydro-thieno[2,3-c]pyridin-2-yl}-3-(2-methoxy-phenyl)-butyramide] | 300 to 2000 | ≥ 10000
COc1cccc(CCC(=O)Nc2sc3c(c2C#N)CCN(C(=O)Cc2cccnc2)C3)c1 [Example 39, N-[3-Cyano-6-(2-pyridin-3-yl-ethanoyl)-4,5,6,7-tetrahydro-thieno[2,3-c]pyridin-2-yl]-3-(3-methoxy-phenyl)-propionamide] | ≤ 300 | ≥ 40000
COc1ccccc1C(C)CC(=O)Nc1sc2c(c1C#N)CCN(C(=O)CCn1cnc(C)c1)C2 (racemic) [Example 152, (RS)—N-{3-Cyano-6-[3-(4-methyl-imidazol-1-yl)-propanoyl]-4,5,6,7-tetrahydro-thieno[2,3-c]pyridin-2-yl}-3-(2-methoxy-phenyl)-butyramide] | 300 to 2000 | ≥ 10000
CCOc1ccccc1CCC(=O)Nc1sc2c(c1C#N)CCN(C(=O)CCOC)C2 [Example 13, N-[3-Cyano-6-(3-methoxy-propanoyl)-4,5,6,7-tetrahydro-thieno[2,3-c]pyridin-2-yl]-3-(2-ethoxy-phenyl)-propionamide] | ≤ 300 | > 100000
COc1ccc(C)cc1CCC(=O)Nc1sc2c(c1C#N)CCN(C(=O)Cn1ccnc1C)C2 [Example 132, N-{3-Cyano-6-[2-(2-methyl-imidazol-1-yl)-ethanoyl]-4,5,6,7-tetrahydro-thieno[2,3-c]pyridin-2-yl}-3-(2-methoxy-5-methyl-phenyl)-propionamide] | ≤ 300 | ≥ 40000
COc1cccc(CCC(=O)Nc2sc3c(c2C#N)CCN(C(=O)CCn2cnc(C)c2)C3)c1 [Example 154, N-{3-Cyano-6-[3-(4-methyl-imidazol-1-yl)-propanoyl]-4,5,6,7-tetrahydro-thieno[2,3-c]pyridin-2-yl}-3-(3-methoxy-phenyl)-propionamide] | 300 to 2000 | ≥ 10000
COC(=O)CCC(=O)N1CCc2c(sc(NC(=O)CCc3ccccc3OC)c2C#N)C1 [Example 4, 4-{3-Cyano-2-[3-(2-methoxy-phenyl)-propanoylamino]-4,7-dihydro-5H-thieno[2,3-c]pyridin-6-yl}-4-oxo-butyric acid methyl ester] | 300 to 2000 | > 100000
COc1ccccc1C(C)CC(=O)Nc1sc2c(c1C#N)CCN(C(=O)CCn1ccnc1)C2 (racemic) [Example 99, (RS)—N-[3-Cyano-6-(3-imidazol-1-yl-propanoyl)-4,5,6,7-tetrahydro-thieno[2,3-c]pyridin-2-yl]-3-(2-methoxy-phenyl)-butyramide] | 300 to 2000 | ≥ 40000
COc1cccc(CCC(=O)Nc2sc3c(c2C#N)CCN(C(=O)CCn2ccnc2)C3)c1 [Example 20, N-[3-Cyano-6-(3-imidazol-1-yl-propanoyl)-4,5,6,7-tetrahydro-thieno[2,3-c]pyridin-2-yl]-3-(3-methoxy-phenyl)-propionamide] | 300 to 2000 | ≥ 40000
CCOc1ccccc1CCC(=O)Nc1sc2c(c1C#N)CCN(C(=O)Cn1cnc(C)c1)C2 [Example 140, N-{3-Cyano-6-[2-(4-methyl-imidazol-1-yl)-ethanoyl]-4,5,6,7-tetrahydro-thieno[2,3-c]pyridin-2-yl}-3-(2-ethoxy-phenyl)-propionamide] | ≤ 300 | ≥ 40000
COCC(=O)N1CCc2c(sc(NC(=O)CCc3cccc(OC)c3)c2C#N)C1 [Example 18, N-[3-Cyano-6-(2-methoxy-ethanoyl)-4,5,6,7-tetrahydro-thieno[2,3-c]pyridin-2-yl]-3-(3-methoxy-phenyl)-propionamide] | 300 to 2000 | > 100000
COc1ccccc1C(C)CC(=O)Nc1sc2c(c1C#N)CCN(C(=O)Cn1ccnc1)C2 (racemic) [Example 82, (RS)—N-[3-Cyano-6-(2-Imidazol-1-yl-ethanoyl)-4,5,6,7-tetrahydro-thieno[2,3-c]pyridin-2-yl]-3-(2-methoxy-phenyl)-butyramide] | 300 to 2000 | ≥ 40000
CCOc1cccc(C(C)CC(=O)Nc2sc3c(c2C#N)CCN(C(=O)Cc2ccncc2)C3)c1 (racemic) [Example 69, (RS)—N-[3-Cyano-6-(2-pyridin-4-yl-ethanoyl)-4,5,6,7-tetrahydro-thieno[2,3-c]pyridin-2-yl]-3-(3-ethoxy-phenyl)-butyramide] | 300 to 2000 | > 100000
COCCC(=O)N1CCc2c(sc(NC(=O)CCc3cc(C)ccc3OC)c2C#N)C1 [Example 32, N-[3-Cyano-6-(3-methoxy-propanoyl)-4,5,6,7-tetrahydro-thieno[2,3-c]pyridin-2-yl]-3-(2-methoxy-5-methyl-phenyl)-propionamide] | 300 to 2000 | > 100000
COc1ccc(C)cc1CCC(=O)Nc1sc2c(c1C#N)CCN(C(=O)CCn1cc(C)nc1C)C2 [Example 163, N-{3-Cyano-6-[3-(2,4-dimethyl-imidazol-1-yl)-propanoyl]-4,5,6,7-tetrahydro-thieno[2,3-c]pyridin-2-yl}-3-(2-methoxy-5-methyl-phenyl)-propionamide] | 300 to 2000 | ≥ 10000
COc1ccc(C)cc1CCC(=O)Nc1sc2c(c1C#N)CCN(C(=O)CCc1cc(C)ccn1)C2 [Example 34, N-{3-Cyano-6-[3-(4-methyl-pyridin-2-yl)-propanoyl]-4,5,6,7-tetrahydro-thieno[2,3-c]pyridin-2-yl}-3-(2-methoxy-5-methyl-phenyl)-propionamide] | 300 to 2000 | > 100000
CCCC(=O)N1CCc2c(sc(NC(=O)CCc3cccc(OC)c3)c2C#N)C1 [Example 23, N-(6-Butyryl-3-cyano-4,5,6,7-tetrahydro-thieno[2,3-c]pyridin-2-yl)-3-(3-methoxy-phenyl)-propionamide] | ≤ 300 | > 100000
COc1ccc(C)cc1CCC(=O)Nc1sc2c(c1C#N)CCN(C(=O)Cn1cnc(C)c1)C2 [Example 141, N-{3-Cyano-6-[2-(4-methyl-imidazol-1-yl)-ethanoyl]-4,5,6,7-tetrahydro-thieno[2,3-c]pyridin-2-yl}-3-(2-methoxy-5-methyl-phenyl)-propionamide] | 300 to 2000 | ≥ 40000
CCOc1ccccc1CCC(=O)Nc1sc2c(c1C#N)CCN(C(=O)Cc1ccncc1)C2 [Example 73, N-[3-Cyano-6-(2-pyridin-4-yl-ethanoyl)-4,5,6,7-tetrahydro-thieno[2,3-c]pyridin-2-yl]-3-(2-ethoxy-phenyl)-propionamide] | ≤ 300 | ≥ 40000
COc1cccc(CCC(=O)Nc2sc3c(c2C#N)CCN(C(=O)CCc2cccnc2)C3)c1 [Example 14, N-[3-Cyano-6-(3-pyridin-3-yl-propanoyl)-4,5,6,7-tetrahydro-thieno[2,3-c]pyridin-2-yl]-3-(3-methoxy-phenyl)-propionamide] | 300 to 2000 | > 100000

Reference: patent publication US7763728B2, “Tetrahydropyridothiophenes” (4SC AG, priority 2005, dated 2010)
